Experimental data as given in ChEMBL document CHEMBL1201862, “PubChem BioAssay data set” (2004).
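96-well plates; 48 h exposure; 5 concentrations. Endpoints by linear interpolation between flanking doses. Not reached: highest tested concentration assigned. GI50 marks 50% less growth.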 Calls of active or inactive are those of the source. Cut-off read from the data, not from the text of the source: active = GI50 up to about 1.1 µM and inactive = higher.

Legend:
Test in all cases: inhibition of tumour cell growth, NCI panel, 48 h
SK-MEL-2 = tested on: SK-MEL-2
SK-OV-3 = tested on: SK-OV-3
HT-29 = tested on: HT-29
UACC-257 = tested on: UACC-257
LOX IMVI = tested on: LOX IMVI
MDA-N = tested on: MDA-N
OVCAR-4 = tested on: OVCAR-4
MDA-MB-231 = tested on: MDA-MB-231
RXF 393 = tested on: RXF 393
OVCAR-5 = tested on: OVCAR-5
TK-10 = tested on: TK-10
OVCAR-3 = tested on: OVCAR-3
OVCAR-8 = tested on: OVCAR-8
SR = tested on: SR
MCF7 = tested on: MCF7
BT-549 = tested on: BT-549
K562 = tested on: K562
A549 = tested on: A549

Structure (SMILES) | GI50 (SK-MEL-2) | GI50 (SK-OV-3) | GI50 (HT-29) | GI50 (UACC-257) | GI50 (LOX IMVI) | GI50 (MDA-N) | GI50 (OVCAR-4) | GI50 (MDA-MB-231) | GI50 (RXF 393) | GI50 (OVCAR-5) | GI50 (TK-10) | GI50 (OVCAR-3) | GI50 (OVCAR-8) | GI50 (SR) | GI50 (MCF7) | GI50 (BT-549) | GI50 (K562) | GI50 (A549)
c1cc(-c2sc(-c3ccncc3)c(-c3ccncc3)c2-c2ccncc2)ccn1 | 20.1 µM (inactive) | 20.9 µM (inactive) | 13.6 µM (inactive) | 17 µM (inactive) | 13.6 µM (inactive) | 13.8 µM (inactive) | 33 µM (inactive) | 15.1 µM (inactive) | 16.3 µM (inactive) | 19.7 µM (inactive) | 15.2 µM (inactive) | 16.9 µM (inactive) | 24.4 µM (inactive) | 14.2 µM (inactive) | 19.4 µM (inactive) | 18.7 µM (inactive) | 28.2 µM (inactive) | 17.2 µM (inactive)
CCCCNC(=O)OCCN=c1c2ccccc2ccc2ccccc12 | > 100 µM (inactive) | > 100 µM (inactive) | > 100 µM (inactive) | > 100 µM (inactive) | > 100 µM (inactive) | > 100 µM (inactive) | > 100 µM (inactive) | > 100 µM (inactive) | > 100 µM (inactive) | > 100 µM (inactive) | > 100 µM (inactive) | > 100 µM (inactive) | > 100 µM (inactive) | > 100 µM (inactive) | > 100 µM (inactive) | > 100 µM (inactive) | > 100 µM (inactive) | > 100 µM (inactive)
CC1=C(CO)C(=O)O[C@@H]([C@@H](CO)[C@H]2CCC3C4C[C@@H](O)[C@@]5(O)CC=CC(=O)[C@]5(C)C4CC[C@@]32C)C1 (some centres not stated) | 53.6 µM (inactive) | > 100 µM (inactive) | 44.2 µM (inactive) | 58.6 µM (inactive) | 38.5 µM (inactive) | 71.9 µM (inactive) | 91.8 µM (inactive) | 59.2 µM (inactive) | 15.2 µM (inactive) | 83.9 µM (inactive) | > 100 µM (inactive) | 22 µM (inactive) | 73.1 µM (inactive) | 34.9 µM (inactive) | 50 µM (inactive) | 26.4 µM (inactive) | 31.8 µM (inactive) | > 100 µM (inactive)
CC(=O)OC(C)(C)CCC(=O)[C@](C)(O)[C@H]1[C@H](O)C[C@@]2(C)[C@@H]3CCc4c(cc(OC5OC(CO)C(O)C(O)C5O)c(O)c4C)C3(C)C(=O)C[C@]12C (some centres not stated) | > 100 µM (inactive) | > 100 µM (inactive) | > 100 µM (inactive) | > 100 µM (inactive) | > 100 µM (inactive) | > 100 µM (inactive) | > 100 µM (inactive) | > 100 µM (inactive) | > 100 µM (inactive) | > 100 µM (inactive) | > 100 µM (inactive) | > 100 µM (inactive) | > 100 µM (inactive) | > 100 µM (inactive) | > 100 µM (inactive) | > 100 µM (inactive) | > 100 µM (inactive) | > 100 µM (inactive)
Cc1c(O)c(OC2OC(CO)C(O)C(O)C2O)cc2c1CC[C@@H]1C2(C)C(=O)C[C@]2(C)[C@@H]([C@@](C)(O)C(O)CCC(C)(C)O)[C@H](O)C[C@@]12C (some centres not stated) | > 100 µM (inactive) | > 100 µM (inactive) | > 100 µM (inactive) | > 100 µM (inactive) | > 100 µM (inactive) | > 100 µM (inactive) | > 100 µM (inactive) | > 100 µM (inactive) | > 100 µM (inactive) | > 100 µM (inactive) | > 100 µM (inactive) | > 100 µM (inactive) | > 100 µM (inactive) | > 100 µM (inactive) | > 100 µM (inactive) | > 100 µM (inactive) | > 100 µM (inactive) | > 100 µM (inactive)
N#Cc1c(-c2ccc([N+](=O)[O-])cc2)cc(-c2ccc(Nc3ccnc4cc(Cl)ccc34)cc2)nc1N | 14.7 µM (inactive) | 32 µM (inactive) | 2.71 µM (inactive) | 26.5 µM (inactive) | 1.45 µM (inactive) | 3.52 µM (inactive) | 2.82 µM (inactive) | 16.9 µM (inactive) | 17.4 µM (inactive) | 30.8 µM (inactive) | 25.9 µM (inactive) | 6.67 µM (inactive) | 2.19 µM (inactive) | 0.399 µM (active) | 1.61 µM (inactive) | 51.1 µM (inactive) | 4.56 µM (inactive) | 3.98 µM (inactive)
Cc1c2ccccc2c(C2C3C(=O)N(c4cccc5ccccc45)C(=O)C3ON2Cc2ccc(CC(N)=O)cc2)c2ccccc12 (configuration not stated) | 10.8 µM (inactive) | 30.8 µM (inactive) | 10.2 µM (inactive) | 12.2 µM (inactive) | 18.9 µM (inactive) | 11.5 µM (inactive) | 19 µM (inactive) | 23.3 µM (inactive) | 8.59 µM (inactive) | 24.9 µM (inactive) | 16.7 µM (inactive) | 18.8 µM (inactive) | 22.4 µM (inactive) | 14 µM (inactive) | 14.8 µM (inactive) | 30.2 µM (inactive) | 15.7 µM (inactive) | 16.3 µM (inactive)
c1ccc2c(c1)N=c1ccccc1=P21c2ccccc2Nc2ccccc21 | 0.256 µM (active) | 0.265 µM (active) | 0.0724 µM (active) | 0.39 µM (active) | 0.953 µM (active) | 0.379 µM (active) | 0.601 µM (active) | 2.69 µM (inactive) | 0.438 µM (active) | 0.421 µM (active) | 0.998 µM (active) | 0.301 µM (active) | 0.521 µM (active) | 0.31 µM (active) | 0.457 µM (active) | 0.372 µM (active) | 0.202 µM (active) | 0.232 µM (active)
O=C1N[C@H]2c3c(Cl)sc(Cl)c3C(=O)[C@H]2O1 | 24 µM (inactive) | 23.1 µM (inactive) | 4.38 µM (inactive) | 16.8 µM (inactive) | 3.61 µM (inactive) | 24 µM (inactive) | 21.9 µM (inactive) | 25.6 µM (inactive) | 25.6 µM (inactive) | 22.1 µM (inactive) | 64.1 µM (inactive) | 17.3 µM (inactive) | 4.31 µM (inactive) | 2.09 µM (inactive) | 39.8 µM (inactive) | 22.3 µM (inactive) | 2.99 µM (inactive) | 36.8 µM (inactive)
CC[C@H](C)c1occ2c(O)c(C(=O)O)c(=O)cc-2c1C | 17.3 µM (inactive) | 26.1 µM (inactive) | 25.7 µM (inactive) | 30.3 µM (inactive) | 15.6 µM (inactive) | 24 µM (inactive) | 24.8 µM (inactive) | 23 µM (inactive) | 15.5 µM (inactive) | 19.5 µM (inactive) | 40.8 µM (inactive) | 19.5 µM (inactive) | 19.2 µM (inactive) | 21.9 µM (inactive) | 29.2 µM (inactive) | 25.9 µM (inactive) | 29.1 µM (inactive) | 30 µM (inactive)
COc1cccc(-c2cc(=O)c3ccc(C)nc3[nH]2)c1 | 0.0541 µM (active) | 0.051 µM (active) | 0.0331 µM (active) |  | 0.0596 µM (active) | 0.0115 µM (active) | 3.78 µM (inactive) | 0.245 µM (active) | 0.0274 µM (active) | 0.239 µM (active) | > 100 µM (inactive) | 0.0219 µM (active) | 0.0847 µM (active) | 0.016 µM (active) | 0.165 µM (active) | 0.299 µM (active) | 0.0232 µM (active) | 0.0728 µM (active)
